This note sets out measurements from patent US11560400B2, “Salts of diphosphate phosphoramidate of nucleosides as anticancer compounds” (NuCana plc, priority 2017, dated 2023).

The structures appear in SMILES notation. pEC50: −log10 of the molar value. Structures can show the parent of a compound that is named as a salt. Where two headings read alike, the source gives them in different places.

One assay deals with Mia-Pa-Ca-2. In words: CellTiterGlo cell viability assay, Mia-Pa-Ca-2. The note with it: Homo sapiens, MIA PaCa-2, Mia-Pa-Ca-2, 72 h; for pEC50: absolute EC50, read-out: Ab EC50; for inhibition at 198 µM: percentage inhibition at the highest concentration tested, read-out: Top Inhibit. It is filed as cell-based. The procedure: A subset of compounds of the invention were assayed for their cytotoxic activity in an array of different solid tumours and haematological malignancies using the following assay.
In vitro viability assay were performed to assess the effects of compounds on cell viability in selected cell lines over 72 h using the CellTiterGlo (CTG, Promega-G7573) assay. The tests were performed in duplicates with treatment of compounds at 9 points, 3.16 folds titration in 96 well plates over ˜72 h. The compound starting concentrations were 198 μM. Cell viability assay using CellTiterGlo in 96-well plate were performed. Compound treatment 72 h, standard growth conditions, duplicates. Compounds were dissolved to 40 mM with thawed […]. Compounds were serially diluted at 3.16 fold in thawed DMSO, and warmed to 37° C. before being dissolved in media (2 μL+200 μL). After compounds were dissolved in media, media containing compounds were warmed to 37° C. in incubator and then compounds in media were added to cell plates (50 μL+50 μL) in duplicates. The compounds' final concentrations were from 198 μM to 19.8 nM. All compound solubilities were checked and recorded again, then the plates were transferred to CO2 tissue culture incubator immediately and incubated for 3 days. DMSO final concentration is 0.5%. The parent nucleoside in each case was tested as a comparator, as was an exemplary ProTide. The drugs of the ProTide class that were tested were as follows:
The following cell lines were tested and are referred to in the Table 1 below:
In Tables 2, 3 and 4, ‘Ab EC50’ refers to the absolute EC50 and ‘Top inhibit’ refers to the percentage inhibition achieved at the highest concentration tested.
In general terms: In ATP-based viability assays light output follows the ATP content of the culture.

A further assay has as its system HT29. In words: CellTiterGlo cell viability assay, HT29. The note with it: HT29, 72 h; for pEC50: read-out: Ab EC50; for inhibition at 198 µM: read-out: Top Inhibit. The assay is classed as cell-based. The method in brief:
(§1)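 Viability was measured by CellTiterGlo luminescence after 3 days of compound exposure, tested in duplicate at nine concentrations (3.16-fold steps, 198 μM top, 19.8 nM bottom, 0.5% DMSO final). Outputs were absolute EC50 and maximal percent inhibition at the highest dose.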

For a further assay, the system named is MOLT-4. In words: CellTiterGlo cell viability assay, MOLT-4. It is filed as cell-based. The method in brief: as §1
In the next assay the test system is K562. In words: CellTiterGlo cell viability assay, K562. The note with it: for pEC50: read-out: Ab EC50. The assay is classed as cell-based. The gist of the method:
as §1

The next assay concerns HL-60. In words: CellTiterGlo cell viability assay, HL-60. It is filed as cell-based. The note with it: HL-60, 72 h; for inhibition at 198 µM: read-out: Top Inh. The gist of the method:
as §1

For a further assay, the system named is RL. Kind of assay: CellTiterGlo cell viability assay, RL. The assay is classed as cell-based. Conditions: 72 h. The method in brief:
as §1

The subject of another assay is RPMI-8226. In words: CellTiterGlo cell viability assay, RPMI-8226. The assay is classed as cell-based, Human. The note with it: RPMI-8226, 72 h. The method in brief:
as §1

The test system of a further assay is HepG2. Kind of assay: CellTiterGlo cell viability assay, HepG2. The note with it: HepG2, 72 h, percentage inhibition at the highest concentration tested. The assay is classed as cell-based. The gist of the method:
as §1

The subject of another assay is OVCAR 3. In words: CellTiterGlo cell viability assay, OVCAR 3. The assay is classed as cell-based. Conditions: for pEC50: Table 4 classes, read-out: Ab EC50. The method in brief:
as §1

Another assay has as its system MCF-7. Kind of assay: CellTiterGlo cell viability assay, MCF-7. The note with it: MCF-7, 72 h, percentage inhibition at the highest concentration tested. The assay is classed as cell-based. The gist of the method: as §1
For another assay, the system named is CCRF-CEM. In words: CellTiterGlo cell viability assay, CCRF-CEM. Conditions: 72 h; for pEC50: Table 4 classes, read-out: Ab EC50. It is filed as cell-based. The method in brief: as §1
Another assay concerns KG-1. Kind of assay: CellTiterGlo cell viability assay, KG-1. The note with it: KG-1, 72 h; for pEC50: Table 4 classes, read-out: Ab EC50. It is filed as cell-based. The gist of the method:
as §1

Where [1] appears, read: Homo sapiens, HT-29, 72 h, absolute EC50, numeric values.
[2] abbreviates: Homo sapiens, HT-29, 72 h, percentage inhibition at the highest concentration tested.
The mark [3] stands for this setting: Homo sapiens, MOLT-4, 72 h, percentage inhibition at the highest concentration tested, read-out: Top Inh.
The mark [4] stands for this setting: Homo sapiens, K562, 72 h, percentage inhibition at the highest concentration tested, read-out: Top Inh.
[5] abbreviates: Homo sapiens, absolute EC50, numeric values, read-out: Ab EC50.
Where [6] appears, read: Homo sapiens, percentage inhibition at the highest concentration tested.
The mark [7] stands for this setting: Homo sapiens, percentage inhibition at the highest concentration tested, read-out: Top Inh.
Setting [8] is: Homo sapiens, Table 4 classes, read-out: Ab EC50.
The mark [9] stands for this setting: percentage inhibition at the highest concentration tested.
Where [10] appears, read: Table 4 classes, read-out: Ab EC50.

Usually pEC50 stands for the negative decadic logarithm of the EC50, by convention in mol/L. On to `C[C@H](NP(=O)(OC[C@@H]1C[C@H](O)[C@H](n2cnc3c(N)ncnc32)O1)Oc1ccccc1)C(=O)OCc1ccccc1` (some centres unmarked) [E, reference compound], for which the pEC50 in the assay on Mia-Pa-Ca-2 was 5.10; in the assay on HT29 (setting [1]) it was 4.97; with MOLT-4 (Homo sapiens, MOLT-4, 72 h, absolute EC50, numeric values, read-out: Ab EC50) it was 5.28; in the assay on K562 (Homo sapiens, K562, 72 h), 4.96; in the assay on HL-60 (Homo sapiens, read-out: Ab EC50, HL-60, 72 h, absolute EC50, numeric values), 4.51; with RL (Homo sapiens, read-out: Ab EC50, RL, 72 h, absolute EC50, numeric values) it was 4.74. Besides, in the assay with RPMI-8226 (Homo sapiens, read-out: Ab EC50, RPMI-8226, 72 h, absolute EC50, numeric values), the negative-log EC50 (pEC50) was 4.70. The inhibition at 198 µM worked out at 98% in the assay with Mia-Pa-Ca-2; 97% in the assay on HT29 (setting [2]); 96% with MOLT-4 (setting [3]); 87% in the assay on K562 (Homo sapiens, K562, 72 h, read-out: Top Inh, K562, 72 h, percentage inhibition at the highest concentration tested); 97% in the assay on HL-60 (Homo sapiens); 90.5% in the assay on RL (Homo sapiens, read-out: Top Inh, RL, 72 h, percentage inhibition at the highest concentration tested). Besides, the inhibition at 198 µM with RPMI-8226 (Homo sapiens, read-out: Top Inh, RPMI-8226, 72 h, percentage inhibition at the highest concentration tested) came out at 97.8%.
On to `C[C@H](NP(=O)(Oc1ccccc1)OP(=O)(O)OC[C@@H]1C[C@H](O)[C@H](n2cnc3c(N)ncnc32)O1)C(=O)OCc1ccccc1` (stereo partly drawn) [Example 6, 3′-Deoxyadenosine-5′-O-[phenyl(benzoxy-L-alaninyl)] Diphosphate Triethylammonium Salt], for which the pEC50 with Mia-Pa-Ca-2 is 4.39; in the assay on HT29 (setting [1]) it was 4.61; in the assay with MOLT-4 (Homo sapiens; MOLT-4, 72 h, absolute EC50, numeric values; read-out: Ab EC50) it was 4.85; with K562 (Homo sapiens, K562, 72 h, absolute EC50, numeric values) it was 4.28; with HL-60 (setting [5]) it was 4.20; in the assay on RL (setting [5]), 4.05. Further, the inhibition at 198 µM in the assay with Mia-Pa-Ca-2 amounted to 95.7%; with HT29 (setting [2]) it was 82%; in the assay with MOLT-4 (setting [3]), 95%; with K562 (setting [4]) it was 81%; in the assay on HL-60 (setting [6]) it was 80%; in the assay on RL (setting [7]), 72%.
Take `CCOC(=O)[C@@H](NP(=O)(Oc1ccccc1)OP(=O)(O)OC[C@H]1O[C@@H](n2cnc3c(N)nc(Cl)nc32)C(F)[C@H]1O)C(C)CC` (stereo partly drawn) [Example 25, 2-Chloro-9-(2′-Deoxy-2′-fluoro-β-D-arabinofuranosyl)adenine-5′-O-[l-phenyl(ethoxy-L-isoleucinyl)] Diphosphate Triethylammonium Salt]: the pEC50 in the assay with HT29 (Homo sapiens, HT-29, 72 h, Table 4 classes) is 6.00 to 6.70; with OVCAR 3 (Homo sapiens, OVCAR 3, 72 h) it was below 5.00; in the assay on CCRF-CEM (Homo sapiens) it was above 6.70; with MOLT-4 (Homo sapiens; MOLT-4, 72 h, Table 4 classes; read-out: Ab EC50), above 6.70; in the assay on K562 (Homo sapiens, K562, K 562, 72 h, Table 4 classes) it was below 5.00; in the assay with HL-60 (setting [8]), above 6.70. Also, the pEC50 in the assay on RPMI-8226 (setting [8]) was 5.30 to 6.00; in the assay with KG-1 (Homo sapiens), above 6.70. Besides, the inhibition at 198 µM in the assay on HT29 (setting [2]) came out at 67%; in the assay with HepG2 (Homo sapiens, read-out: Top Inhibit), 49%; in the assay with OVCAR 3 (Homo sapiens, OVCAR-3, 72 h, percentage inhibition at the highest concentration tested, read-out: Top Inhibit) it was 24%; in the assay on MCF-7 (Homo sapiens, MCF7, 72 h, read-out: Top Inhibit) it was 43%; in the assay on CCRF-CEM (setting [7]), 99%; in the assay on MOLT-4 (setting [3]), 86%. Further, the inhibition at 198 µM in the assay with K562 (setting [4]) amounted to 33%; with HL-60 (setting [6]), 95%; in the assay on RL (setting [7]) it was 44%; in the assay with RPMI-8226 (setting [7]), 83%; with KG-1 (Homo sapiens, percentage inhibition at the highest concentration tested, read-out: Top Inhibit) it was 91%.
Turning to `CCN(CC)CC.C[C@H](NP(=O)(Oc1cccc2ccccc12)OP(O)(=S)OC[C@H]1O[C@@H](n2cnc3c(N)nc(Cl)nc32)[C@@H](F)[C@@H]1O)C(=O)OCc1ccccc1` (stereo partly drawn) [Example 26, 2-Chloro-9-(2′-Deoxy-2′-fluoro-β-D-arabinofuranosyl)adenine-5′-O-[l-naphthyl(benzoxy-L-alaninyl)] phosphorothiol-phosphate Triethylammonium Salt], the pEC50 in the assay on HT29 (Table 4 classes) was 6.00 to 6.70; in the assay on OVCAR 3 (OVCAR 3, 72 h) it was below 5.00; in the assay with CCRF-CEM, above 6.70; in the assay on MOLT-4 (MOLT-4, 72 h, Table 4 classes; read-out: Ab EC50), above 6.70; in the assay with K562 (K 562, 72 h, Table 4 classes) it was below 5.00; in the assay with HL-60 (setting [10]), above 6.70. The pEC50 is below 5.00 in the assay on RL (setting [10]), 5.30 to 6.00 in the assay on RPMI-8226 (setting [10]) and above 6.70 with KG-1. For the same compound, the “Top Inhibit” value with HT29 (setting [9]) came to 64%; in the assay with HepG2, 49%; in the assay on OVCAR 3 (OVCAR 3, 72 h, percentage inhibition at the highest concentration tested) it was 62%; with MCF-7, 44%; in the assay on KG-1 (setting [9]), 91%. Besides, the “Top Inh” value in the assay on CCRF-CEM (setting [9]) was 99%; in the assay with MOLT-4 (MOLT-4, 72 h, percentage inhibition at the highest concentration tested) it was 84%; with K562 (K562, 72 h, percentage inhibition at the highest concentration tested), 69%; in the assay with HL-60 (setting [9]), 95%; in the assay with RL (setting [9]), 56%; in the assay on RPMI-8226 (setting [9]), 93%.
